{"source": "paper PMC8397956", "about": "(Molecules, 2021)", "key": {"E. coli XL1 Blue [1]": {"test_system": "E. coli XL1 Blue", "assay": "Growth inhibition of E. coli XL1 Blue, paper disc diffusion on LB solid medium", "format": "cell-based, Escherichia coli", "details": "for Growth Inhibition Zone: 24 h at 37 °C; for colonies of tolerant bacteria in the inhibition zone / bacterial growth inhibition (in words): paper disc diffusion; for bacterial growth inhibition (in words): Figure 1A", "procedure": "The antimicrobial activity of α,α-difluorophosphonate 9a and 10 was determined using the paper disc diffusion method and was compared with the antimicrobial activity of the non-fluorinated phosphonate and phosphate compounds 3, 4 et 6. The diameters of the inhibition zone are given with respect to the amount of inhibitor deposited on the disc (Table 2).\n(§1) The antimicrobial activity of hydroxamic acids 9b, 10a and 10b against E. coli XL1 Blue and fosmidomycin-resistant strain E. coli FosR [7], was determined using the paper disc diffusion method. LB agar plates (9 cm diameter) were inoculated with a suspension of bacteria (200 μL, mid-exponential phase). […] Growth inhibition was examined after 24 h incubation at 37 °C."}, "E. coli H6-DXR [2]": {"target": "T1, E. coli H6-DXR (Escherichia coli, UniProt P45568)", "T1 construct": "His6 (H6)", "T1 sequence (P45568 whole entry)": "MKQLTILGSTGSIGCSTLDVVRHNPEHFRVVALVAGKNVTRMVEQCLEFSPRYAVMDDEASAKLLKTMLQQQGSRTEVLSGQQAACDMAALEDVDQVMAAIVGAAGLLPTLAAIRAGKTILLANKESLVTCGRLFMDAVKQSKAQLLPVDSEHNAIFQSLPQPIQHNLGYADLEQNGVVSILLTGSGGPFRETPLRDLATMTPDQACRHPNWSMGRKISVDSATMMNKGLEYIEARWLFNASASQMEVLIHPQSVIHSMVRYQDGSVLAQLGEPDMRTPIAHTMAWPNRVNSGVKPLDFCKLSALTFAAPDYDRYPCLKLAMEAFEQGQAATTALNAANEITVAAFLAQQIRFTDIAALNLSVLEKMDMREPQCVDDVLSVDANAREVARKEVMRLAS", "assay": "Inhibition of E. coli His-tagged DXR (photometric NADPH assay)", "format": "biochemical", "procedure": "The inhibition potency of α,α-difluorophosphonohydroxamic acid derivatives was characterized by their IC50 value that was determined as previously described. […] Residual activity was measured after initiating the enzymatic reaction by addition of DXP.\nThe assays were performed at 37 °C in a 50 mM Tris/HCl buffer pH 7.5 containing 3 mM MgCl2 and 2 mM DTT. The concentrations of DXP and NADPH were 480 µM and 160 µM respectively. The decrease of absorbance at 340 nm due to NADPH oxidation was monitored to determine the initial rates. The retained values were the average of at least two measurements. The relative average deviation must be lower than 4%.\nInhibitor concentrations in the stock solutions were verified by spectrophotometric phosphorus determination. The study compounds 9b and 10a, 10b were tested against E. coli DXR using a photometric assay that was described earlier. H-DXR was pre-incubated during 2 min in the presence of the inhibitors 9b, 10a and 10b at different concentrations and NADPH. DXP was then added to measure the residual activity. The inhibitory potential of the tested compounds was quantified by determining the IC50 values. They were obtained by plotting the percentage of residual activity versus the Log of inhibitor concentration."}, "E. coli XL1 Blue [3]": {"test_system": "E. coli XL1 Blue", "details": "cited from earlier work"}, "E. coli H6-DXR [4]": {"target": "T1, E. coli H6-DXR", "details": "cited from earlier work"}, "[5]": {"test_system": "Plasmodium falciparum (K1 strain)", "parameters": "method as in PMID 20568776", "details": "racemic mixtures, intraerythrocytic forms, ref [14]; cited from earlier work"}, "[6]": {"test_system": "fosmidomycin-resistant strain E. coli FosR", "assay": "Growth inhibition of fosmidomycin-resistant E. coli FosR, paper disc diffusion", "format": "cell-based, Escherichia coli", "details": "GlpT/UhpT transporters inoperative, Figure 1B", "procedure": "as §1"}}, "note": "Where two headings read alike, the source gives them in different places. Marks after values point to notes of the source that are not given here."}
{"molecule": "O=CN(O)CCCP(=O)(O)O", "note": "[Compound 3a, fosmidomycin]", "values": [{"measurement": "Growth Inhibition Zone", "setting": "E. coli XL1 Blue [1]; 2 nmoles/disc", "result": 35, "unit": "mm"}, {"measurement": "colonies of tolerant bacteria in the inhibition zone", "setting": "E. coli XL1 Blue [1]", "result": "colonies of tolerant bacteria"}]}
{"molecule": "CC(=O)N(O)CCCP(=O)(O)O", "note": "[Compound 3b, FR-900098]", "values": [{"measurement": "IC50", "setting": "E. coli H6-DXR [2]", "result": 4, "unit": "nM"}, {"measurement": "Growth Inhibition Zone", "setting": "E. coli XL1 Blue [3]; 2 nmoles/disc, ref [9]", "result": "32 * mm"}]}
{"molecule": "O=C(CCCP(=O)(O)O)NO", "note": "[Compound 4a]", "values": [{"measurement": "IC50", "setting": "E. coli H6-DXR [4]; ref [8]", "result": 180, "unit": "nM"}, {"measurement": "Growth Inhibition Zone", "setting": "E. coli XL1 Blue [3]; 400 nmoles/disc, ref [8]", "result": "12 ** mm"}]}
{"molecule": "CN(O)C(=O)CCCP(=O)(O)O", "note": "[Compound 4b]", "values": [{"measurement": "Growth Inhibition Zone", "setting": "E. coli XL1 Blue [3]; 80 nmoles/disc, ref [8]", "result": "30 ** mm"}]}
{"molecule": "O=CN(O)CCOP(=O)(O)O", "note": "[Compound 5a, fosfoxacin]", "values": [{"measurement": "IC50", "setting": "E. coli H6-DXR [4]; ref [9]", "result": 342, "unit": "nM"}]}
{"molecule": "CC(=O)N(O)CCOP(=O)(O)O", "note": "[Compound 5b]", "values": [{"measurement": "IC50", "setting": "E. coli H6-DXR [4]; ref [9]", "result": 77, "unit": "nM"}]}
{"molecule": "O=C(CCOP(=O)(O)O)NO", "note": "[Compound 6a]", "values": [{"measurement": "IC50", "setting": "E. coli H6-DXR [4]; ref [9]", "result": 2600, "unit": "nM"}, {"measurement": "Growth Inhibition Zone", "setting": "E. coli XL1 Blue [3]; 400 nmoles/disc, ref [9]", "result": "<10 * mm"}]}
{"molecule": "CN(O)C(=O)CCOP(=O)(O)O", "note": "[Compound 6b]", "values": [{"measurement": "IC50", "setting": "E. coli H6-DXR [4]; ref [9]", "result": 46, "unit": "nM"}, {"measurement": "Growth Inhibition Zone", "setting": "E. coli XL1 Blue [3]; 160 nmoles/disc, ref [9]", "result": "20 * mm"}]}
{"molecule": "CC(=O)N(O)CCC(F)P(=O)(O)O", "note": "(stereo not drawn) [Compound 7]", "values": [{"measurement": "activity compared with parent compounds fosmidomycin and 4b", "setting": "[5]", "result": "more active"}]}
{"molecule": "CN(O)C(=O)CCC(F)P(=O)(O)O", "note": "(stereo not drawn) [Compound 8]", "values": [{"measurement": "activity compared with parent compounds fosmidomycin and 4b", "setting": "[5]", "result": "more active"}]}
{"molecule": "CC(=O)N(O)CCC(F)(F)P(=O)(O)O", "note": "[Compound 9b, (1,1-Difluoro-3-(N-hydroxyacetamido)propyl)phosphonic acid]", "values": [{"measurement": "IC50", "setting": "E. coli H6-DXR [2]", "result": 9, "unit": "nM"}, {"measurement": "Growth Inhibition Zone", "setting": "E. coli XL1 Blue [1]; 2 nmoles/disc", "result": 15, "unit": "mm"}, {"measurement": "colonies of tolerant bacteria in the inhibition zone", "setting": "E. coli XL1 Blue [1]", "result": "did not appear"}, {"measurement": "bacterial growth inhibition (in words)", "setting": "E. coli XL1 Blue [1]", "result": "quite effective to inhibit bacterial growth"}, {"measurement": "bacterial growth inhibition (in words)", "setting": "[6]", "result": "No growth inhibition"}]}
{"molecule": "O=C(CCC(F)(F)P(=O)(O)O)NO", "note": "[Compound 10a, (1,1-Difluoro-4-(hydroxyamino)-4-oxobutyl)phosphonic acid]", "values": [{"measurement": "IC50", "setting": "E. coli H6-DXR [2]", "result": 4600, "unit": "nM"}, {"measurement": "fold less efficient than N-methylated analogue 10b", "setting": "E. coli H6-DXR [2]; ratio of IC50 values on E. coli DXR", "result": 280}, {"measurement": "bacterial growth inhibition (in words)", "setting": "E. coli XL1 Blue [1]", "result": "no inhibition was observed"}]}
{"molecule": "CN(O)C(=O)CCC(F)(F)P(=O)(O)O", "note": "[Compound 10b, (1,1-Difluoro-4-(hydroxy(methyl)amino)-4-oxobutyl)phosphonic acid]", "values": [{"measurement": "IC50", "setting": "E. coli H6-DXR [2]", "result": 17, "unit": "nM"}, {"measurement": "Growth Inhibition Zone", "setting": "E. coli XL1 Blue [1]; 1.5 nmoles/disc", "result": 20, "unit": "mm"}, {"measurement": "colonies of tolerant bacteria in the inhibition zone", "setting": "E. coli XL1 Blue [1]", "result": "did not appear"}, {"measurement": "bacterial growth inhibition (in words)", "setting": "E. coli XL1 Blue [1]", "result": "quite effective to inhibit bacterial growth"}]}
